In US8574563B2 (Bristol-Myers Squibb Company, priority 2006, dated 2013):

System: HCV 1b-377-neo replicon cells
Test: HCV replicon assay, HCV 1b-377-neo replicon cells (1b FRET)
Type: cell-based, Hepatitis C virus genotype 1b
Details: HCV 1b-377-neo replicon cells; HCV 1b genotype; read-out: EC50 range against HCV 1b (Table 2, Range)
How it was run: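 FRET-based replicon assay in HCV 1b-377-neo cells, including a comparison line carrying the NS5A Y2065H mutation that confers resistance to a reference compound.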

SMILES | EC50 [nM]
COC(=O)N[C@@H](C(=O)N1CCC[C@H]1c1ncc(-c2ccc(-c3ccc(-c4cnc([C@@H]5CCCN5C(=O)[C@H](OC)c5ccccc5)[nH]4)cc3)cc2)[nH]1)c1ccccc1 [Example 84-80, methyl ((1R)-2-((2S)-2-(5-(4′-(2-((2S)-1-((2R)-2-methoxy-2-phenylacetyl)-2-pyrrolidinyl)-1H-imidazol-5-yl)-4-biphenylyl)-1H-imdiazol-2-yl)-1-pyrrolidinyl)-2-oxo-1-phenylethyl)carbamate] | 0.001 to 0.999

Same assay, conditions: Hepatitis C virus, HCV 1b-377-neo replicon cells; HCV 1b genotype; read-out: EC50 range against HCV 1b (Table 2, Range)

SMILES | EC50 [nM]
CCN(CC)[C@@H](C(=O)N1CCC[C@H]1c1ncc(-c2ccc(-c3ccc(-c4cnc([C@@H]5CCCN5C(=O)[C@@H](NC(=O)OC)C(C)C)[nH]4)c(F)c3)cc2)[nH]1)c1ccccc1 [Example D35, methyl ((1S)-1-(((2S)-2-(5-(4′-(2-((2S)-1-((2R)-2-(diethylamino)-2 - phenylacetyl)-2-pyrrolidinyl)-1H-imidazol-5-yl)-3-fluoro-4-biphenylyl)-1H-imidazol-2-yl)-1-pyrrolidinyl)carbonyl)-2-methylpropyl) carbamate] | 0.001 to 0.999
CCN(CC)[C@@H](C(=O)N1CCC[C@H]1c1ncc(-c2ccc(-c3ccc(-c4cnc([C@@H]5CCCN5C(=O)C[C@H](Cc5ccccc5)NC(=O)OC)[nH]4)cc3)cc2)[nH]1)c1ccccc1 [cj-53, methyl ((1S)-1-benzyl-3-((2S)-2-(5-(4′-(2-((2S)-1-((2R)-2-(diethylamino)-2-phenylacetyl)-2-pyrrolidinyl)-1H-imidazol-5-yl)-4-biphenylyl)-1H-imidazol-2-yl)-1-pyrrolidinyl)-3-oxopropyl)carbamate] | 0.001 to 0.999
COC(=O)N[C@H](C(=O)N1CCC[C@H]1c1ncc(-c2ccc(-c3ccc(-c4nc([C@@H]5CCCN5C(=O)[C@@H](NC(=O)OC)C(C)C)[nH]c4C)cc3)cc2)[nH]1)C(C)C [Example E5e, methyl ((1S)-1-(((2S)-2-(4-(4′-(2-((2S)-1-((2S)-2-((methoxycarbonyl)amino)-3-methylbutanoyl)-2-pyrrolidinyl)-1H-imidazol-4-yl)-4-biphenylyl)-5-methyl-1H-imidazol-2-yl)-1-pyrrolidinyl)carbonyl)-2-methylpropyl)carbamate] | 0.001 to 0.999
O=C(C(c1ccccc1)N1CCC(O)CC1)N1CCC[C@H]1c1ncc(-c2ccc(-c3ccc(-c4cnc([C@@H]5CCCN5C(=O)C(c5ccccc5)N5CCC(O)CC5)[nH]4)cc3)cc2)[nH]1 (stereo partly drawn) [Example 24-4h, 1,1′-(4,4′-biphenyldiylbis(1H-imidazole-5,2-diyl(2S)-2,1-pyrrolidinediyl(2-oxo-1-phenyl-2,1-ethanediyl)))di(4-piperidinol)] | 0.001 to 0.999
COC(=O)NCC(=O)N1[C@@H](C)CC[C@H]1c1nc(-c2ccc(-c3ccc(-c4c[nH]c([C@@H]5CC[C@H](C)N5C(=O)CNC(=O)OC)n4)cc3)cc2)c[nH]1 [Example M155, methyl (2-((2S,5S)-2-(4-(4′-(2-((2S,5S)-1-(((methoxycarbonyl)amino)acetyl)-5-methyl-2-pyrrolidinyl)-1H-imidazol-4-yl)-4-biphenylyl)-1H-imidazol-2-yl)-5-methyl-1-pyrrolidinyl)-2-oxoethyl)carbamate] | 1 to 99
COC(=O)N[C@@H](C)C(=O)N1CCC[C@H]1c1nc(-c2cnc(-c3ccc(-c4cnc([C@@H]5CCCN5C(=O)[C@H](C)NC(=O)OC)[nH]4)cc3)nc2)c[nH]1 [Example D73, methyl ((1S)-2-((2S)-2-(5-(4-(5-(2-((2S)-1-(N-(methoxycarbonyl)-L-alanyl)-2-pyrrolidinyl)-1H-imidazol-5-yl)-2-pyrimidinyl)phenyl)-1H-imidazol-2-yl)-1-pyrrolidinyl)-1-methyl-2-oxoethyl)carbamate] | 0.001 to 0.999
COC(=O)N[C@@H](C(=O)N1CCC[C@H]1c1nc(-c2ccc(-c3ccc(-c4cnc([C@@H]5CC6CCCCC6N5C(=O)[C@H](NC(=O)OC)c5ccccc5)[nH]4)cc3)cc2)c[nH]1)c1ccccc1 (relative stereo) [Example F8, methyl rel-((1R)-2-((2S)-2-(4-(4′-(2-((2S)-1-((2R)-2-((methoxycarbonyl)amino)-2-phenylacetyl)octahydro-1H-indol-2-yl)-1H-imidazol-5-yl)-4-biphenylyl)-1H-imidazol-2-yl)-1-pyrrolidinyl)-2-oxo-1-phenylethyl)carbamate] | 0.001 to 0.999
COC(=O)N[C@@H](C(=O)N1CCC[C@H]1c1ncc(-c2ccc(-c3ccc(-c4cnc([C@@H]5CCCN5C(=O)[C@H](NC(=O)OC)c5ccccc5Cl)[nH]4)cc3)cc2)[nH]1)c1ccccc1Cl [Example 24-3, dimethyl (4,4′-biphenyldiylbis(1H-imidazole-5,2-diyl(2S)-2,1-pyrrolidinediyl((1R)-1-(2-chlorophenyl)-2-oxo-2,1-ethanediyl)))biscarbamate] | 0.001 to 0.999
CN(C)[C@@H](C(=O)N1CCC[C@H]1c1ncc(-c2ccc(-c3ccc(-c4cnc([C@@H]5CCCN5C(=O)[C@@H](c5ccccc5)N(C)C)[nH]4)nc3)cc2)[nH]1)c1ccccc1 [Example 146, (1R)-2-((2S)-2-(5-(5-(4-(2-((2S)-1-((2R)-2-(dimethylamino)-2-phenylacetyl)-2-pyrrolidinyl)-1H-imidazol-5-yl)phenyl)-2-pyridinyl)-1H-imidazol-2-yl)-1-pyrrolidinyl)-N,N-dimethyl-2-oxo-1-phenylethanamine] | 0.001 to 0.999
CC(C)(C)OC(=O)N1CCC(C(=O)N2CCC[C@H]2c2ncc(-c3ccc(-c4ccc(-c5cnc([C@@H]6CCCN6C(=O)[C@@H](c6ccccc6)N6CCCCC6)[nH]5)cc4)cc3)[nH]2)CC1 [Example 107-9, tert-butyl 4-(((2S)-2-(5-(4′-(2-((2S)-1-((2R)-2-phenyl-2-(1-piperidinyl)acetyl)-2-pyrrolidinyl)-1H-imidazol-5-yl)-4-biphenylyl)-1H-imidazol-2-yl)-1-pyrrolidinyl)carbonyl)-1-piperidinecarboxylate] | 0.001 to 0.999
CN(C)[C@@H](C(=O)N1CCC[C@H]1c1ncc(-c2ccc(-c3ccc(-c4cnc([C@@H]5CCCN5C(=O)Cc5c[nH]c6ccccc56)[nH]4)cc3)cc2)[nH]1)c1ccccc1 [Example 94-56, (1R)-2-((2S)-2-(5-(4′-(2-((2S)-1-(1H-indol-3-ylacetyl)-2-pyrrolidinyl)-1H-imidazol-5-yl)-4-biphenylyl)-1H-imidazol-2-yl)-1-pyrrolidinyl)-N,N-dimethyl-2-oxo-1-phenylethanamine] | 0.001 to 0.999
COC(=O)N[C@@H](C(=O)N1CCC[C@H]1c1ncc(-c2ccc(-c3ccc(-c4cnc([C@@H]5CCCN5C(=O)CCC(C)=O)[nH]4)cc3)cc2)[nH]1)c1ccccc1 [Example 84-39, methyl ((1R)-2-oxo-2-((2S)-2-(5-(4′-(2-((2S)-1-(4-oxopentanoyl)-2-pyrrolidinyl)-1H-imidazol-5-yl)-4-biphenylyl)-1H-imidazol-2-yl)-1-pyrrolidinyl)-1-phenylethyl)carbamate] | 0.001 to 0.999
COC(=O)N[C@@H](C(=O)N1CCC[C@H]1c1ncc(-c2ccc(-c3ccc(-c4cnc([C@@H]5CCCN5C(=O)C(c5csc(C)n5)N(C)C)[nH]4)cc3)cc2)[nH]1)c1ccccc1 (stereo partly drawn) [Example 84-48, methyl ((1R)-2-((2S)-2-(5-(4′-(2-((2S)-1-((dimethylamino)(2-methyl-1,3-thiazol-4-yl)acetyl)-2-pyrrolidinyl)-1H-imidazol-5-yl)-4-biphenylyl)-1H-imidazol-2-yl)-1-pyrrolidinyl)-2-oxo-1-phenylethyl)carbamate] | 0.001 to 0.999
COC(=O)N[C@@H](CC(=O)N1CCC[C@H]1c1ncc(-c2ccc(-c3ccc(-c4cnc([C@@H]5CCCN5C(=O)C[C@@H](Cc5cccs5)NC(=O)OC)[nH]4)cc3)cc2)[nH]1)Cc1cccs1 [cj-138, dimethyl (4,4′-biphenyldiylbis(1H-imidazole-5,2-diyl(2S)-2,1-pyrrolidinediyl((2S)-4-oxo-1-(2-thienyl)-4,2-butanediyl)))biscarbamate] | 1000 to 10000
O=C([C@H]1CCCO1)N1CCC[C@H]1c1ncc(-c2ccc(-c3ccc(-c4cnc([C@@H]5CCCN5C(=O)[C@@H](c5ccccc5)N5CCCCC5)[nH]4)cc3)cc2)[nH]1 [Example 28-2, 1-((1R)-2-oxo-1-phenyl-2-((2S)-2-(5-(4′-(2-((2S)-1-((2R)-tetrahydro-2-furanylcarbonyl)-2-pyrrolidinyl)-1H-imidazol-5-yl)-4-biphenylyl)-1H-imidazol-2-yl)-1-pyrrolidinyl)ethyl)piperidine] | 0.001 to 0.999
CCN(CC)[C@@H](C(=O)N1CCC[C@H]1c1ncc(-c2ccc(-c3ccc(-c4cnc([C@@H]5CCCN5C(=O)[C@@H]5CCN5C(=O)OC)[nH]4)cc3)cc2)[nH]1)c1ccccc1 [cj-50, methyl (2S)-2-(((2S)-2-(5-(4′-(2-((2S)-1-((2R)-2-(diethylamino)-2-phenylacetyl)-2-pyrrolidinyl)-1H-imidazol-5-yl)-4-biphenylyl)-1H-imidazol-2-yl)-1-pyrrolidinyl)carbonyl)-1-azetidinecarboxylate] | 0.001 to 0.999
COC(=O)N[C@H](C(=O)N1CCC[C@H]1c1ncc(-c2ccc(-c3ccc(-c4cnc([C@@H]5CCCN5C(=O)[C@@H](NC(=O)OC)[C@H](C)O)[nH]4)cc3)cc2)[nH]1)[C@H](C)O [Example M16, methyl ((1S,2S)-2-hydroxy-1-(((2S)-2-(5-(4′-(2-((2S)-1-((2S,3S)-3-hydroxy-2-((methoxycarbonyl)amino)butanoyl)-2-pyrrolidinyl)-1H-imidazol-5-yl)-4-biphenylyl)-1H-imidazol-2-yl)-1-pyrrolidinyl)carbonyl)propyl)carbamate] | 1000 to 10000
COC(=O)N[C@H](C(=O)N1CCC[C@H]1c1nc(-c2ccc(-c3ccc(-c4c[nH]c([C@@H]5CCCN5C(=O)[C@@H](NC(=O)O[C@H]5CCOC5)C(C)C)n4)cc3)cc2)c[nH]1)C(C)C [Example F54, (3S)-tetrahydro-3-furanyl ((1S)-1-(((2S)-2-(4-(4′-(2-((2S)-1-(N-(methoxycarbonyl)-L-valyl)-2-pyrrolidinyl)-1H-imidazol-4-yl)-4-biphenylyl)-1H-imidazol-2-yl)-1-pyrrolidinyl)carbonyl)-2-methylpropyl)carbamate] | 0.001 to 0.999
